The numbers were not newly measured in patent publication US20240408209A1, “Peptide-Protected Gold Nanocluster and Use in Photodynamic Therapy” (Queen's University at Kingston, priority 2023, published 2024), which cites them from elsewhere.

For the series the following is noted: positive control.

On to `CN(C)c1ccc2nc3ccc(=[N+](C)C)cc-3sc2c1` [Methylene blue], for which the “QY of photochemical generation of 1O2” value is 0.52.
